Values of other authors in US7060463B2 (priority 2001, dated 2006).
pIC50: −log10 of the molar value.

Biological target: GST-Flag-rhARLBD (Macaca mulatta, UniProt Q6QT55)
Sequence (Q6QT55 601-895): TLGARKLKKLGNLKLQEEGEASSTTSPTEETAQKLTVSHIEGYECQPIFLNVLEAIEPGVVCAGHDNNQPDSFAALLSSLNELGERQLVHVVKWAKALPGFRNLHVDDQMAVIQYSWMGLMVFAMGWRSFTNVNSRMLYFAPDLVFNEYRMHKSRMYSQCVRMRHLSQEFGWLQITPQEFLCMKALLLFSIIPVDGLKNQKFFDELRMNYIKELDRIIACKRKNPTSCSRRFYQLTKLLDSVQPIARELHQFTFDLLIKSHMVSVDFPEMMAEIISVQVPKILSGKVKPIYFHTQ

In the case of `C[C@]1(O)CC[C@H]2[C@@H]3CCC4=CC(=O)CCC4=C3C=C[C@@]21C` [R1881, 17b-hydroxy-17-methylestra-4,9,11-trien-3-one], the pIC50 is listed as roughly 9.00.
